Literature values in US11825820B2, “Poly-glutamine androgen receptor knock-in mouse models, reagents and methods” (priority 2017, dated 2023).
Where two headings read alike, the source gives them in different places.

Experiments:
[1] = tested on: patients with NASH/NAFLD scores of 3 to 8
[2] = 100 mg, 250 mg vs Pioglitazone 45 mg; 28 days
NASH = conditions: 30 mg/day
[3] = tested on: patients with nonalcoholic steatohepatitis; conditions: 24 weeks

CSc1ccc(C(=O)/C=C/c2cc(C)c(OC(C)(C)C(=O)O)c(C)c2)cc1 [Elafibranor]
anti-inflammatory effects ([1]; Phase IIb claims): Anti-inflammatory effects
insulin sensitivity and glucose homeostasis ([1]; Phase IIb claims): Improved insulin sensitivity and glucose homeostasis
markers of hepatic dysfunction, including liver enzymes ALT, AST, GGT, ALP ([1]; Phase IIb claims): Improvement in markers of hepatic dysfunction
plasma lipids (triglyceride, LDL-C, HDL-C) ([1]; Phase IIb claims): reduction in triglyceride and LDL-C and increased HDL-C levels
RR, Elafibranor vs placebo ([1]; Phase IIb, after withdrawal of NAS <4 patients): 1.9
positive result, Elafibranor vs placebo ([1]; Phase IIb, after withdrawal of NAS <4 patients, placebo 12.7%, p=0.046): 22.4%
safety profile ([1]; clinical trials, toxicology studies up to two-year carcinogenicity): good safety profile with no unwanted side effects
statistical significance of results across the entire study population ([1]; entire study population incl. NAS <4 patients): prevented Elafibranor from having statistically significant results
histological parameters NASH (steatosis, inflammation, fibrosis) (animal models of NASH): Beneficial effects on histological parameters NASH

COc1cccc(C(=O)COc2ccc(CC3SC(=O)[N-]C3=O)cc2)c1.[K+] (stereo not drawn) [MSCD-0602K]
adiponectin levels vs Pioglitazone [2]: equivalent to Pioglitazone
overall glucose control vs Pioglitazone [2]: equivalent to Pioglitazone

CCc1ccc(CCOc2ccc(CC3SC(=O)NC3=O)cc2)nc1 (stereo not drawn) [Pioglitazone]
side effects (NASH): weight gain, edema, bone fractures and increased risk of bladder cancer

Cc1cc(F)c(C(=O)Nc2cccc(-c3nncn3C(C)C)n2)cc1-n1cnc(C2CC2)c1 [selonsertib]
proportion of patients with a one or more stage reduction in fibrosis ([3]; 6-mg selonsertib group, 8 of 27, 95% CI 14-50): 30%
proportion of patients with a one or more stage reduction in fibrosis ([3]; 18-mg selonsertib group, 13 of 30, 95% CI 26-63): 43%

B1: simtuzumab (antibody, chains of the INN, looked up, V domains shown)
VH: QVQLVQSGAEVKKPGASVKVSCKASGYAFTYYLIEWVRQAPGQGLEWIGVINPGSGGTNYNEKFKGRATITADKSTSTAYMELSSLRSEDTAVYFCARNWMNFDYWGQGTTVTVSS
VL: DIVMTQTPLSLSVTPGQPASISCRSSKSLLHSNGNTYLYWFLQKPGQSPQFLIYRMSNLASGVPDRFSGSGSGTDFTLKISRVEAEDVGVYYCMQHLEYPYTFGGGTKVEIK
notes: comparator group (simtuzumab-alone) in the selonsertib Phase 2 study
proportion of patients with a one or more stage reduction in fibrosis ([3]; simtuzumab-alone group, 2 of 10, 95% CI 3-56): 20%
